Series [1] addresses Rv1026 protein from Mycobacterium tuberculosis H37Rv (Mycobacterium tuberculosis H37Rv). Briefly: SEC + other: dynamic light scattering.
For the next series, the target named is T1, E. coli PPX (EC-PPX) (Escherichia coli, UniProt P0AFL6).
T1 construct: predicted 53 kDa; dimer
T1 sequence (P0AFL6 2-513): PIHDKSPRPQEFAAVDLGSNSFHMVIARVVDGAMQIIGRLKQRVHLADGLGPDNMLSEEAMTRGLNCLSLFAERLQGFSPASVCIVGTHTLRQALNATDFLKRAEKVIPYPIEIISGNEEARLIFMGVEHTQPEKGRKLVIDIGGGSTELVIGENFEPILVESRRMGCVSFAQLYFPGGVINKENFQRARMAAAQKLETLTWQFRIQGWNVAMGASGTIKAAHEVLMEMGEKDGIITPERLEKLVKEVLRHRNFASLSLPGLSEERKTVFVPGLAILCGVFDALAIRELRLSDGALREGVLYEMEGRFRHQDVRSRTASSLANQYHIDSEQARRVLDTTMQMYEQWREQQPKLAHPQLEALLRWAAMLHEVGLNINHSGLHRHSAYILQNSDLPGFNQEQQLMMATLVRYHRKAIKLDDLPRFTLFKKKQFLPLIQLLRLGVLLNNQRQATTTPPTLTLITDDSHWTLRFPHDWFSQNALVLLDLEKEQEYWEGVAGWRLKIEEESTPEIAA
Kind of series: inhibition of poly-P130 hydrolysis, EnzChek phosphate release. It is filed as biochemical. The note with it: poly-P130 125 µM, 1 mM MnCl2, 25 mM KCl, 50 mM HEPES pH 6.8, 37°C. An excerpt:
inhibition of poly-P130 hydrolysis, EnzChek phosphate release on E. coli PPX (EC-PPX)

The target in series [2] is T2, E. coli GPP (EC-GPP, GppA) (Escherichia coli, UniProt P25552).
T2 construct: predicted 51 kDa; dimer
T2 sequence (P25552 1-494): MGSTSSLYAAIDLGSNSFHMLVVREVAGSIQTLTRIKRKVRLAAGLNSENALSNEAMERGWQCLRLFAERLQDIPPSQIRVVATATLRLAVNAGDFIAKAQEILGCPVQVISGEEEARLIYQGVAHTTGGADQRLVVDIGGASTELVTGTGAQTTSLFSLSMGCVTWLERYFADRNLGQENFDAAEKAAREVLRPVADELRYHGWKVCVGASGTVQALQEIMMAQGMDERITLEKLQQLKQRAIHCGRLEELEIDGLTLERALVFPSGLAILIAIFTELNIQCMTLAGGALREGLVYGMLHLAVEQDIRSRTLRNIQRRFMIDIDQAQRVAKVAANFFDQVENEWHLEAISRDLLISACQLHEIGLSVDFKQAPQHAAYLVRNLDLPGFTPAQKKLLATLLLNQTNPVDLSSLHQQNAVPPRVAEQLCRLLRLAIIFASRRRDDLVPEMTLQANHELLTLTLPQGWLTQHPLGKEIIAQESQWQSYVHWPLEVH
The series is described as above. The note with it: poly-P130 125 µM, 1 mM MnCl2, 25 mM KCl, 50 mM HEPES pH 6.8, 37°C. The series is classed as biochemical. An excerpt:
inhibition of poly-P130 hydrolysis, EnzChek phosphate release on E. coli GPP (EC-GPP, GppA)

Series [3] deals with T2, E. coli GPP (EC-GPP, GppA). Kind of series: GTP hydrolysis, anion exchange chromatography. The conditions noted are these: 1 mM GTP, 1 mM MnCl2, 4 mM (NH4)2SO4, 50 mM Tris-HCl pH 7.4, 37°C. The series is classed as biochemical.
Series [4] deals with the molecule itself. Briefly: SEC + other: dynamic light scattering.
Series [5] concerns the molecule itself. Briefly: SEC + other: dynamic light scattering; Superdex 200 gel filtration calibrated with protein standards; light scattering of 2, 1 and 0.5 mg/ml protein in 25 mM Tris-HCl pH 7.4, 25 mM NaCl (DynaPro Plate Reader Plus); self-association, dimer. In general terms: In gel filtration, larger molecules generally elute earlier.

For orientation: stoichiometry N means a count of units in the complex or per binding partner. On to “Rv1026 protein from Mycobacterium tuberculosis H37Rv (enzyme)”, for which, in series [1], the stoichiometry N was 2.
`Nc1nc2c(ncn2[C@@H]2O[C@H](COP(=O)(O)OP(=O)(O)OP(=O)(O)O)[C@@H](OP(=O)(O)OP(=O)(O)O)[C@H]2O)c(=O)[nH]1` [pppGpp, guanosine 5′-triphosphate, 3′-diphosphate]: the “Exopolyphosphatase activities / +1 mM pppGpp / (% decrease) / ATPase activities” value was 89.6±20.1% on E. coli PPX (EC-PPX) and 29.5±4.4% in series [2].
With `Nc1nc2c(ncn2[C@@H]2O[C@H](COP(=O)(O)OP(=O)(O)O)[C@@H](OP(=O)(O)OP(=O)(O)O)[C@H]2O)c(=O)[nH]1` [ppGpp, guanosine 3′,5′-bisdiphosphate], the “Exopolyphosphatase activities / +1 mM ppGpp / (% decrease) / ATPase activities” value on E. coli PPX (EC-PPX) was 10.8±1.2%; in series [2] it was 6.0±0.5%.
`Nc1nc2c(ncn2[C@@H]2O[C@H](COP(=O)(O)OP(=O)(O)OP(=O)(O)O)[C@@H](O)[C@H]2O)c(=O)[nH]1` [GTP]: in series [3], the “GTP hydrolysis, anion exchange chromatography” value was “the E. coli GPP protein was a highly efficient GTPase and a modest ATPase”.

B1: Rv0496 (MTB-PPX1) protein from Mycobacterium tuberculosis H37Rv (enzyme)
chain: MRLGVLDVGSNTVHLLVVDAHRGGHPTPMSSTKATLRLAEATDSSGKITKRGADKLISTIDEFAKIAISSGCAELMAFATSAVRDAENSEDVLSRVRKETGVELQALRGEDESRLTFLAVRRWYGWSAGRILNLDIGGGSLEVSSGVDEEPEIALSLPLGAGRLTREWLPDDPPGRRRVAMLRDWLDAELAEPSVTVLEAGSPDLAVATSKTFRSLARLTGAAPSMAGPRVKRTLTANGLRQLIAFISRMTAVDRAELEGVSADRAPQIVAGALVAEASMRALSIEAVEICPWALREGLILRKLDSEADGTALIESSSVHTSVRAVGGQPADRNAANRSRGSKP
B1: in series [4], the “stoichiometry N” value worked out at 2.

B2: E. coli guanosine pentaphosphate 5'-phosphohydrolase (GPP, GppA) (enzyme, E. coli BL21 (DE3), UniProt P25552 1-494, looked up)
chain: T2 sequence (P25552 1-494)
notes: also called EC-GPP; E. coli GPP; source: E. coli BL21(DE3), purified (HiTrap Chelating HP, eluted with 60 mM imidazole)
B2: in series [5], the “stoichiometry N” value came out at 2.

B3: E. coli exopolyphosphatase (PPX) (enzyme, E. coli BL21 (DE3), UniProt P0AFL6 1-513, looked up)
chain: MPIHDKSPRPQEFAAVDLGSNSFHMVIARVVDGAMQIIGRLKQRVHLADGLGPDNMLSEEAMTRGLNCLSLFAERLQGFSPASVCIVGTHTLRQALNATDFLKRAEKVIPYPIEIISGNEEARLIFMGVEHTQPEKGRKLVIDIGGGSTELVIGENFEPILVESRRMGCVSFAQLYFPGGVINKENFQRARMAAAQKLETLTWQFRIQGWNVAMGASGTIKAAHEVLMEMGEKDGIITPERLEKLVKEVLRHRNFASLSLPGLSEERKTVFVPGLAILCGVFDALAIRELRLSDGALREGVLYEMEGRFRHQDVRSRTASSLANQYHIDSEQARRVLDTTMQMYEQWREQQPKLAHPQLEALLRWAAMLHEVGLNINHSGLHRHSAYILQNSDLPGFNQEQQLMMATLVRYHRKAIKLDDLPRFTLFKKKQFLPLIQLLRLGVLLNNQRQATTTPPTLTLITDDSHWTLRFPHDWFSQNALVLLDLEKEQEYWEGVAGWRLKIEEESTPEIAA
notes: also called EC-PPX; E. coli PPX; source: E. coli BL21(DE3), purified (HiTrap Chelating HP, eluted with 60 mM imidazole)
For the molecule B3, the “stoichiometry N” value in series [5] worked out at 2.

Source of the values: PMC3411833, “The Two PPX-GppA Homologues from Mycobacterium tuberculosis Have Distinct Biochemical Activities” (PLoS ONE, 2012).
